# In patent US20260335388A1, “COMBINATION THERAPIES WITH ONCOLYTIC ADENOVIRUS AND TOPOISOMERASE I INHIBITORS OR PRODRUGS THEREOF” (priority 2022, published 2026):
# Experiments:
# HSJD-RBT-7 tumors = type: in vivo, mouse; conditions: systemic drug after intratumoral VCN-01 3×10E^9 vp/tumor; 5 days (FIG. 3)
# CDK6 = assay: Cell cycle gene expression array, CDK6; type: cell-based, human; conditions: RBT-7 cells pre-infected with VCN-01; topotecan 2 μM (FIG. 17F)
# Protocol: To assess the expression of genes involved in the cell cycle, 6-well culture plates containing 2×10^6 retinoblastoma cells were used. VCN-01 was added at 50 MOI for 48 h, followed by the addition of topotecan (2 μM), […] (12.5 μM) or culture medium. The cell pellets were collected 24 h later. The samples were plated in the TaqMan® Array of Human Cyclins & Cell Cycle Regulation (Thermo Fisher Scientific). This array contains 92 assays of cell cycle-associated genes and assays of GAPDH, 18S, HPRT1 and GUSB as endogenous control genes. the threshold cycle (Ct) value ≥35 was established as absence of expression. The mean expression value of the controls was used to normalize gene expression values. The thresholds for upregulation and downregulation were 2^−ΔΔCt≥2.0 and 2^−ΔΔct≤0.5, respectively (Livak and Schmittgen, “Analysis of relative gene expression data using real-time quantitative PCR and the 2 (−Delta Delta C(T)) Method,” Methods 2001; 25(4):402-8).
# SYBR primers were CDKN1A (Forward 5′-GGACAGGAGAGGAAGACCATGT-3′ (SEQ ID NO: 15), Reverse 5′-TGGAGTGGTAGAATTCTGTCATGC-3′ (SEQ ID NO: 16) and CDK6 (Forward 5′-CCAGGCAGGCTTTTCATTCA-3′ (SEQ ID NO: 17), Reverse 5′-AGGTCCTGGAAGTATGGGTG-3′ (SEQ ID NO: 18).
# [1] = test system: RBT-7 intracerebral tumors; assay: Brain analyses at end of treatment, CNS-disseminated retinoblastoma; type: in vivo, mouse; conditions: end of treatment (FIG. 22G)
compound,measurement,setting,value
"CC[C@@]1(O)C(=O)OCc2c1cc1n(c2=O)Cc2cc3c(CN(C)C)c(O)ccc3nc2-1 [Topotecan, topotecan]",VCN-01 genome content in tumors,HSJD-RBT-7 tumors,increases VCN-01 genome content
same,decrease in expression of CDK6,CDK6,15 fold
same,expression of CDKN1A in brain homogenates,[1],highest expression of CDKN1A
